Data published in patent EP2271935B1, “METHOD AND KIT FOR THE EX VIVO EVALUATION OF THE RESPONSE OF A TUMOR TO CONDITIONS TO BE TESTED” (Universität Leipzig, priority 2008, dated 2009).
Where two headings read alike, the source gives them in different places.

Tested on: epithelial cell line KB (DSMZ ACC 136)
Experiment: MTT assay of proliferation under varied riboflavin content and light exposure
Assay type: cell-based, human
From the text: To address this question, three media, a) the RPMI 1640 without riboflavin and phenol red that is used in the method according to the invention and was manufactured according to our specifications by Biochrom, as well as two different RPMI 1640 charges purchased from Invitrogen which were each containing 532 nmol/L riboflavin, b) a phenol red-free (Gibco 11835), and c) a conventional RPMI 1640 (Gibco 21875) with 13.284 µmol/L phenol red. All media were supplemented with 2 mmol/L L-alanyl-1-glutamine as stabilized glutamine source (Biochrom K0302 Lot 0755 S) and the same amount of 10% (v/v) of heat-inactivated fetal calf serum (FCS) that was purchased from Invitrogen (Lot 41Q7554K) with a yield of 198 nmol/L riboflavin. […] These medium concentrations define the riboflavin concentrations in controls (see below).
In addition to the influences exerted by the different types of media alone, the riboflavin-dependent impact on the outcome of the docetaxel treatment was investigated. For this purpose 100 µl/well of docetaxel dilutions containing threefold the concentration indicated were added into the wells of microwell plates. The following seven docetaxel concentrations were tested: 19.38, 38.75, 77.5, 155, 310, 620, and 1,240 pmol/L.
To examine photoactivation-dependent riboflavin-mediated effects disturbing the outcome of ex-vivo chemoresponse-evaluation by conventional cell culture medium, and in particular in the absence of flavin-protecting experimental conditions, varying amounts of riboflavin were added. A stock solution of 200 µM (-)-riboflavin (CAS 83-68-5, Sigma R9504, FW=376.37 g/mol, purity >99%, cell culture tested) in phosphate buffered saline was diluted to adjust in each case the highest final concentration in culture (this means: after completion of the assay by addition of the other two components to the final assay volume of 300 µL) to exactly 10 µmol/L. Serial log10-dilutions were made from this concentration in each corresponding medium. These gave final concentrations in cell culture of 10.000, 1.018, 0.12, and 0.03 µmol/L in the case of medium a) (the medium according to the method of the invention), and concentrations of 10.000, 1.449, 0.594, and 0.508 µmol/L using media b) and c).
In general, each combination of riboflavin and docetaxel were tested in duplicate, and controls without additional riboflavin in quadruplicate for each experimental setting in the same 96-well plate. The experimental conditions were as follows: For each of the used media, two different plates were prepared simultaneously and either handled completely under flavin-protecting conditions (illumination only by sodium discharge lamps with an emission wavelength of 589 nm [i]), or in the same bench (Thermo MSC 12) with the installed light inside their working chamber switched on. The dilution of docetaxel and those of riboflavin in the particular medium were prepared for all four plates of each medium type prior to the other working steps under flavin-protecting conditions. Thus the administrations of these dilutions took about 20 min either under flavin-protecting conditions or illuminated conditions. After completed preparation of the plates that thereafter contained 200 µL of both diluted compounds, the plates were incubated 2 h in the incubator to allow for adjustment of the appropriate pH.
In between the stock culture of KB was harvested by trypsination of a 3-days stock culture (exponential growth phase). Stock cultures of KB cells always were grown without any antibiotic or antimycotic in phenol red- and riboflavin-free RPMI 1640 supplemented with 10% (v/v) FCS and were adapted to this medium for more than five passages. They were always handled at room temperature or warmer and were never exposed to light other than the light of a sodium discharge lamp with an emission wavelength of 589 nm for at least five passages. […]

Structure (SMILES): CC(=O)O[C@@]12CO[C@@H]1C[C@H](O)[C@@]1(C)C(=O)[C@H](O)C3=C(C)[C@@H](OC(=O)[C@H](O)[C@@H](NC(=O)OC(C)(C)C)c4ccccc4)C[C@@](O)([C@@H](OC(=O)c4ccccc4)[C@H]21)C3(C)C [docetaxel]
- IC50 (Homo sapiens, Epithelial cell, 0.5 h, Plate No. 06; Riboflavin 594 nmol/L; medium b), daylight 30 min, read-out: IC50 for docetaxel normalized to medium control of medium with same riboflavin content): 0.0838 nM
- IC50 (Homo sapiens, Epithelial cell, 0.5 h, Plate No. 07; Riboflavin 499 nmol/L; medium b) phenol red-free RPMI 1640, bench lighting <30 min, read-out: IC50 for docetaxel with reference to control with same riboflavin content): 0.169 nM
- IC50 (Homo sapiens, Epithelial cell, 0.5 h, Plate No. 07; Riboflavin 499 nmol/L; medium b), bench lighting <30 min, read-out: IC50 for docetaxel normalized to medium control of medium with same riboflavin content): 0.1 nM
- IC50 (Homo sapiens, Epithelial cell, 0.5 h, Plate No. 07; Riboflavin 508 nmol/L; medium b) phenol red-free RPMI 1640, bench lighting <30 min, read-out: IC50 for docetaxel with reference to control with same riboflavin content): 0.124 nM
- IC50 (Homo sapiens, Epithelial cell, 0.5 h, Plate No. 07; Riboflavin 508 nmol/L; medium b), bench lighting <30 min, read-out: IC50 for docetaxel normalized to medium control of medium with same riboflavin content): 0.0735 nM
- IC50 (Homo sapiens, Epithelial cell, 0.5 h, Plate No. 07; Riboflavin 594 nmol/L; medium b) phenol red-free RPMI 1640, bench lighting <30 min, read-out: IC50 for docetaxel with reference to control with same riboflavin content): 0.172 nM
- IC50 (Homo sapiens, Epithelial cell, 0.5 h, Plate No. 07; Riboflavin 594 nmol/L; medium b), bench lighting <30 min, read-out: IC50 for docetaxel normalized to medium control of medium with same riboflavin content): 0.102 nM
- IC50 (Homo sapiens, Epithelial cell, 0.5 h, Plate No. 07; Riboflavin 1449 nmol/L; medium b) phenol red-free RPMI 1640, bench lighting <30 min, read-out: IC50 for docetaxel with reference to control with same riboflavin content): 0.128 nM
- IC50 (Homo sapiens, Epithelial cell, 0.5 h, Plate No. 07; Riboflavin 1449 nmol/L; medium b), bench lighting <30 min, read-out: IC50 for docetaxel normalized to medium control of medium with same riboflavin content): 0.0759 nM
- IC50 (Homo sapiens, Epithelial cell, 0.5 h, Plate No. 07; Riboflavin 10000 nmol/L; medium b) phenol red-free RPMI 1640, bench lighting <30 min, read-out: IC50 for docetaxel with reference to control with same riboflavin content): 0.135 nM
- IC50 (Homo sapiens, Epithelial cell, 0.5 h, Plate No. 07; Riboflavin 10000 nmol/L; medium b), bench lighting <30 min, read-out: IC50 for docetaxel normalized to medium control of medium with same riboflavin content): 0.0801 nM
- IC50 (Homo sapiens, Epithelial cell, 0.5 h, Plate No. 08; Riboflavin 499 nmol/L; medium b) phenol red-free RPMI 1640, bench lighting <30 min, daylight 30 min, read-out: IC50 for docetaxel with reference to control with same riboflavin content): 0.181 nM
- IC50 (Homo sapiens, Epithelial cell, 0.5 h, Plate No. 08; Riboflavin 499 nmol/L; medium b), bench lighting <30 min, daylight 30 min, read-out: IC50 for docetaxel normalized to medium control of medium with same riboflavin content): 0.1 nM
- IC50 (Homo sapiens, Epithelial cell, 0.5 h, Plate No. 08; Riboflavin 508 nmol/L; medium b) phenol red-free RPMI 1640, bench lighting <30 min, daylight 30 min, read-out: IC50 for docetaxel with reference to control with same riboflavin content): 0.186 nM
- IC50 (Homo sapiens, Epithelial cell, 0.5 h, Plate No. 08; Riboflavin 508 nmol/L; medium b), bench lighting <30 min, daylight 30 min, read-out: IC50 for docetaxel normalized to medium control of medium with same riboflavin content): 0.103 nM
- IC50 (Homo sapiens, Epithelial cell, 0.5 h, Plate No. 08; Riboflavin 594 nmol/L; medium b) phenol red-free RPMI 1640, bench lighting <30 min, daylight 30 min, read-out: IC50 for docetaxel with reference to control with same riboflavin content): 0.208 nM
- IC50 (Homo sapiens, Epithelial cell, 0.5 h, Plate No. 08; Riboflavin 594 nmol/L; medium b), bench lighting <30 min, daylight 30 min, read-out: IC50 for docetaxel normalized to medium control of medium with same riboflavin content): 0.115 nM
- IC50 (Homo sapiens, Epithelial cell, 0.5 h, Plate No. 10; Riboflavin 499 nmol/L; medium c) conventional RPMI 1640 with phenol red, daylight 30 min, read-out: IC50 for docetaxel with reference to control with same riboflavin content): 0.421 nM
- IC50 (Homo sapiens, Epithelial cell, 0.5 h, Plate No. 10; Riboflavin 499 nmol/L; medium c), daylight 30 min, read-out: IC50 for docetaxel normalized to medium control of medium with same riboflavin content): 0.1 nM
- IC50 (Homo sapiens, Epithelial cell, 0.5 h, Plate No. 10; Riboflavin 508 nmol/L; medium c) conventional RPMI 1640 with phenol red, daylight 30 min, read-out: IC50 for docetaxel with reference to control with same riboflavin content): 0.337 nM
- IC50 (Homo sapiens, Epithelial cell, 0.5 h, Plate No. 10; Riboflavin 508 nmol/L; medium c), daylight 30 min, read-out: IC50 for docetaxel normalized to medium control of medium with same riboflavin content): 0.0801 nM
- IC50 (Homo sapiens, Epithelial cell, 0.5 h, Plate No. 10; Riboflavin 594 nmol/L; medium c) conventional RPMI 1640 with phenol red, daylight 30 min, read-out: IC50 for docetaxel with reference to control with same riboflavin content): 0.264 nM
- IC50 (Homo sapiens, Epithelial cell, 0.5 h, Plate No. 10; Riboflavin 594 nmol/L; medium c), daylight 30 min, read-out: IC50 for docetaxel normalized to medium control of medium with same riboflavin content): 0.0627 nM
- IC50 (Homo sapiens, Epithelial cell, 0.5 h, Plate No. 10; Riboflavin 1449 nmol/L; medium c) conventional RPMI 1640 with phenol red, daylight 30 min, read-out: IC50 for docetaxel with reference to control with same riboflavin content): 0.136 nM
- IC50 (Homo sapiens, Epithelial cell, 0.5 h, Plate No. 10; Riboflavin 1449 nmol/L; medium c), daylight 30 min, read-out: IC50 for docetaxel normalized to medium control of medium with same riboflavin content): 0.0323 nM
- IC50 (Homo sapiens, Epithelial cell, 0.5 h, Plate No. 11; Riboflavin 499 nmol/L; medium c) conventional RPMI 1640 with phenol red, bench lighting <30 min, read-out: IC50 for docetaxel with reference to control with same riboflavin content): 0.225 nM
